# According to patent publication US20240285785A1, “TARGETING SORTILIN” (priority 2022, published 2024):
# Experiment: Murine serum stability assay
# Assay type: in vitro ADME, mouse (CD-1)
# Details: male CD-1 mouse serum, 37° C.; listed as Aro-SAR-Q15
# Experimental: Serum was drawn from male CD-1 mice by Pharmidex. Lyophilized peptides were solubilized in DMSO and then further diluted into male mouse (CD-1) serum at 37° C. in duplicates. The reaction was incubated at 37° C. and samples extracted at 6 time points: 0, 0.16, 0.5, 1, 3, and 6 hrs. Acetonitrile (ACN) with internal standard (tolbutamide) was added to stop the incubation. Samples were centrifuged, and the supernatant was analyzed by HPLC-MS/MS for the parent compound.
row,SMILES,"Murine serum stability assay, T1/2 [min]"
1,CC(C)C[C@H](NC(=O)[C@H](C)NC(=O)[C@@H]1CCCN1C(=O)[C@H](CC(=O)O)NC(=O)[C@H](CCCNC(=N)N)NC(=O)[C@H](CC(C)C)NC(=O)[C@@H]1CCCN1C(=O)[C@H](C)NC(=O)[C@H](CC(=O)O)NC(=O)[C@H](Cc1c[nH]c2ccccc12)NC(=O)[C@H](CCCNC(=N)N)NC(=O)[C@@H]1CCCN1C(=O)[C@H](C)N)C(=O)N[C@@H](CCCNC(=N)N)C(=O)N[C@@H](CCC(N)=O)C(=O)N[C@H](C(=O)N[C@@H](CC1CCC1)C(=O)O)C(C)(C)C [Arb-SAR-Q15],18.92

# Same assay, conditions: male, CD-1, mouse, mouse serum, male CD-1 mouse serum, 37° C.; read-out: Murine serum stability assay, T1/2
row,SMILES,half-life [min]
1,CC(=O)N[C@@H](CCC(=O)O)C(=O)N[C@@H](Cc1c[nH]c2ccccc12)C(=O)N[C@H]1CSSC[C@@H](C(=O)N[C@@H](CCCNC(=N)N)C(=O)N[C@@H](CCC(N)=O)C(=O)N[C@H](C(=O)N[C@@H](CC(C)(C)C)C(=O)O)C(C)(C)C)NC(=O)[C@H]([C@@H](C)O)NC(=O)[C@@H]2CCCN2C(=O)[C@H](Cc2c[nH]cn2)NC(=O)[C@H](CC(N)=O)NC(=O)[C@H](Cc2c[nH]cn2)NC(=O)[C@H](CC(C)C)NC(=O)CNC1=O [Arb_cyclic_F3],173
2,"CCCC[C@@H]1NC(=O)[C@H](CCCNC(=N)N)NC(=O)[C@H](CC(C)C)NC(=O)[C@H](CO)NC(=O)[C@H](C(C)C)NC(=O)[C@@H](NC(=O)[C@H](CC(=O)O)NC(=O)[C@H](CCCNC(=N)N)NC(C)=O)CSSC[C@@H](C(=O)N[C@@H](CCCNC(=N)N)C(=O)N[C@@H](CCC(N)=O)C(=O)N[C@H](C(=O)N[C@@H](CC(C)(C)C)C(=O)O)C(C)(C)C)NC(=O)[C@H](C(C)C)NC(=O)[C@H](Cc2c[nH]cn2)NC1=O [Arb_cyclic_G5, RDCVSLR(Nle)HVCRQ(B13)(F02)]",95.2
3,CC(C)C[C@H](NC(=O)[C@H](C)NC(=O)[C@@H]1CCCN1C(=O)[C@H](CC(=O)O)NC(=O)[C@H](CCCNC(=N)N)NC(=O)[C@H](CC(C)C)NC(=O)[C@@H]1CCCN1C(=O)[C@H](C)NC(=O)[C@H](CC(=O)O)NC(=O)[C@H](Cc1c[nH]c2ccccc12)NC(=O)[C@H](CCCNC(=N)N)NC(=O)[C@@H]1CCCN1C(=O)[C@H](C)N)C(=O)N[C@@H](CCCNC(=N)N)C(=O)N[C@@H](CCC(N)=O)C(=O)N[C@@H](CC1CC1)C(=O)N[C@@H](CC(C)(C)C)C(=O)O [Arb-SAR-P21],9.33
4,CC(C)C[C@H](NC(=O)[C@H](C)NC(=O)[C@@H]1CCCN1C(=O)[C@H](CC(=O)O)NC(=O)[C@H](CCCNC(=N)N)NC(=O)[C@H](CC(C)C)NC(=O)[C@@H]1CCCN1C(=O)[C@H](C)NC(=O)[C@H](CC(=O)O)NC(=O)[C@H](Cc1c[nH]c2ccccc12)NC(=O)[C@H](CCCNC(=N)N)NC(=O)[C@@H]1CCCN1C(=O)[C@H](C)N)C(=O)N[C@@H](CCCNC(=N)N)C(=O)N[C@@H](CCC(N)=O)C(=O)N[C@@H](CC1CCC1)C(=O)N[C@@H](CC(C)(C)C)C(=O)O [Arb-SAR-P24],10.1
5,CC[C@H](C)[C@@H]1NC(=O)[C@@H](NC(=O)CNC(=O)[C@H](CCCNC(=N)N)NC(C)=O)CSSC[C@@H](C(=O)N[C@@H](CCCNC(=N)N)C(=O)N[C@@H](CCC(N)=O)C(=O)N[C@H](C(=O)N[C@@H](CC(C)(C)C)C(=O)O)C(C)(C)C)NC(=O)[C@H](C)NC(=O)[C@H](CC(=O)O)NC(=O)[C@H](CCC(N)=O)NC(=O)[C@H](CCCNC(=N)N)NC(=O)[C@H](CCCNC(=N)N)NC(=O)[C@@H]2CCCN2C1=O [Arb_cyclic_G7],9.26
6,CC(=O)N[C@@H](Cc1c[nH]cn1)C(=O)N[C@@H](CC(N)=O)C(=O)N[C@@H](Cc1ccccc1)C(=O)N[C@@H](Cc1ccc(O)cc1)C(=O)N[C@H]1CSSC[C@@H](C(=O)N[C@@H](CCC(N)=O)C(=O)N[C@@H](CCCNC(=N)N)C(=O)N[C@@H](CCC(N)=O)C(=O)N[C@H](C(=O)N[C@@H](CC(C)(C)C)C(=O)O)C(C)(C)C)NC(=O)[C@H](Cc2c[nH]cn2)NC(=O)[C@H](CCCCN)NC(=O)[C@H](CCCNC(=N)N)NC1=O [Arb_cyclic_C22],58.8
7,"CCCC[C@@H]1NC(=O)[C@H](CCCNC(=N)N)NC(=O)[C@H](Cc2c[nH]cn2)NC(=O)[C@H]([C@@H](C)O)NC(=O)[C@H]([C@@H](C)O)NC(=O)[C@@H](NC(=O)[C@H](CO)NC(=O)[C@H](CCCNC(=N)N)NC(C)=O)CSSC[C@@H](C(=O)N[C@@H](CCCNC(=N)N)C(=O)N[C@@H](CCC(N)=O)C(=O)N[C@H](C(=O)N[C@@H](CC(C)(C)C)C(=O)O)C(C)(C)C)NC(=O)[C@H]([C@@H](C)O)NC(=O)[C@H](C)NC1=O [Arb_cyclic_G14, RSCTTHR(Nle)ATCRQ(B13)(F02)]",50.9
8,CC(C)C[C@H](NC(=O)[C@H](CC(C)C)NC(=O)[C@H](CCO)NC(=O)[C@H](CCCNC(=N)N)NC(=O)[C@H](CC(C)C)NC(=O)[C@H](C)NC(=O)[C@@H]1CCCN1C(=O)[C@H](CC(=O)O)NC(=O)[C@H](CCCNC(=N)N)NC(=O)[C@H](CC(C)C)NC(=O)[C@@H]1CCCN1C(=O)[C@H](C)NC(=O)[C@H](CC(=O)O)NC(=O)[C@H](Cc1c[nH]c2ccccc12)NC(=O)[C@H](CCCNC(=N)N)NC(=O)[C@@H]1CCCN1C(=O)[C@H](C)N)C(=O)O [Arb-SAR-K3],11.2
9,CC(C)C[C@H](NC(=O)[C@H](C)NC(=O)[C@@H]1CCCN1C(=O)[C@H](CC(=O)O)NC(=O)[C@H](CCCNC(=N)N)NC(=O)[C@H](CC(C)C)NC(=O)[C@@H]1CCCN1C(=O)[C@H](C)NC(=O)[C@H](CC(=O)O)NC(=O)[C@H](Cc1c[nH]c2ccccc12)NC(=O)[C@H](CCCNC(=N)N)NC(=O)[C@@H]1CCCN1C(=O)[C@H](C)N)C(=O)N[C@@H](CCCNC(=N)N)C(=O)N[C@@H](CCC(N)=O)C(=O)N[C@H](C(=O)N[C@@H](CC1CCC1)C(=O)O)C(C)(C)C [Arb-SAR-Q15],16.9
10,CC(C)C[C@H](NC(=O)[C@H](C)NC(=O)[C@@H]1CCCN1C(=O)[C@H](CC(=O)O)NC(=O)[C@H](CCCNC(=N)N)NC(=O)[C@H](CC(C)C)NC(=O)[C@@H]1CCCN1C(=O)[C@H](C)NC(=O)[C@H](CC(=O)O)NC(=O)[C@H](Cc1c[nH]c2ccccc12)NC(=O)[C@H](CCCNC(=N)N)NC(=O)[C@@H]1CCCN1C(=O)[C@H](C)N)C(=O)N[C@@H](CCCNC(=N)N)C(=O)N[C@@H](CCC(N)=O)C(=O)N[C@@H](Cc1ccccc1)C(=O)N[C@@H](CC1CCC1)C(=O)O [Arb-SAR-Q7],7.73

# Continued, values first:
row,half-life [min],SMILES
1,49.2,"CCCC[C@@H]1NC(=O)[C@H](CCCNC(=N)N)NC(=O)[C@H](CCC(N)=O)NC(=O)[C@H](CC(N)=O)NC(=O)[C@H](CCC(=O)O)NC(=O)[C@@H](NC(=O)[C@H](Cc2c[nH]c3ccccc23)NC(=O)[C@H](CCCNC(=N)N)NC(C)=O)CSSC[C@@H](C(=O)N[C@@H](CCCNC(=N)N)C(=O)N[C@@H](CCC(N)=O)C(=O)N[C@H](C(=O)N[C@@H](CC(C)(C)C)C(=O)O)C(C)(C)C)NC(=O)[C@H](C(C)C)NC(=O)[C@H]([C@@H](C)O)NC1=O [Arb_cyclic_G22, RWCENQR(Nle)TVCRQ(B13)(F02)]"
2,14.1,CC(C)C[C@H](NC(=O)[C@H](C)NC(=O)[C@@H]1CCCN1C(=O)[C@H](CC(=O)O)NC(=O)[C@H](CCCNC(=N)N)NC(=O)[C@H](CC(C)C)NC(=O)[C@@H]1CCCN1C(=O)[C@H](C)NC(=O)[C@H](CC(=O)O)NC(=O)[C@H](Cc1c[nH]c2ccccc12)NC(=O)[C@H](CCCNC(=N)N)NC(=O)[C@@H]1CCCN1C(=O)[C@H](C)N)C(=O)N[C@@H](CCCNC(=N)N)C(=O)N[C@@H](CCC(N)=O)C(=O)N[C@@H](CC1CC1)C(=O)N[C@@H](CC1CCC1)C(=O)O [Arb-SAR-Q13]
3,11.4,CC(C)CC[C@H](NC(=O)[C@H](CCC(N)=O)NC(=O)[C@H](CCCNC(=N)N)NC(=O)[C@H](CC(C)C)NC(=O)[C@H](C)NC(=O)[C@@H]1CCCN1C(=O)[C@H](CC(=O)O)NC(=O)[C@H](CCCNC(=N)N)NC(=O)[C@H](CC(C)C)NC(=O)[C@@H]1CCCN1C(=O)[C@H](C)NC(=O)[C@H](CC(=O)O)NC(=O)[C@H](Cc1c[nH]c2ccccc12)NC(=O)[C@H](CCCNC(=N)N)NC(=O)[C@@H]1CCCN1C(=O)[C@H](C)N)C(=O)N[C@@H](CC1CCC1)C(=O)O [Arb-SAR-Q09]
4,46.1,CCCC[C@@H]1NC(=O)[C@@H](NC(=O)[C@H](CCC(N)=O)NC(=O)[C@H](C)NC(C)=O)CSSC[C@@H](C(=O)N[C@@H](CCCNC(=N)N)C(=O)N[C@@H](CCC(N)=O)C(=O)N[C@H](C(=O)N[C@@H](CC(C)(C)C)C(=O)O)C(C)(C)C)NC(=O)[C@H](C)NC(=O)[C@H](CCCNC(=N)N)NC(=O)[C@H](CC(N)=O)NC(=O)[C@H](CCCNC(=N)N)NC(=O)CNC1=O [Arb_cyclic_C5]
5,13.8,CC(C)CC[C@H](NC(=O)[C@H](CCCNC(=N)N)NC(=O)[C@H](CC(C)C)NC(=O)[C@H](C)NC(=O)[C@@H]1CCCN1C(=O)[C@H](CC(=O)O)NC(=O)[C@H](CCCNC(=N)N)NC(=O)[C@H](CC(C)C)NC(=O)[C@@H]1CCCN1C(=O)[C@H](C)NC(=O)[C@H](CC(=O)O)NC(=O)[C@H](Cc1c[nH]c2ccccc12)NC(=O)[C@H](CCCNC(=N)N)NC(=O)[C@@H]1CCCN1C(=O)[C@H](C)N)C(=O)N[C@@H](CC(C)C)C(=O)N[C@@H](CC(C)C)C(=O)O [Arb-SAR-K01]
6,12.7,CC(C)C[C@H](NC(=O)[C@H](C)NC(=O)[C@@H]1CCCN1C(=O)[C@H](CC(=O)O)NC(=O)[C@H](CCCNC(=N)N)NC(=O)[C@H](CC(C)C)NC(=O)[C@@H]1CCCN1C(=O)[C@H](C)NC(=O)[C@H](CC(=O)O)NC(=O)[C@H](Cc1c[nH]c2ccccc12)NC(=O)[C@H](CCCNC(=N)N)NC(=O)[C@@H]1CCCN1C(=O)[C@H](C)N)C(=O)N[C@@H](CCCNC(=N)N)C(=O)N[C@@H](CCC(N)=O)C(=O)N[C@H](C(=O)N[C@@H](CC(C)(C)C)C(=O)O)C(C)(C)C [Arb-SAR-P23]

# Same assay, conditions: male, CD-1, mouse, serum, 37° C., read-out: Murine serum stability assay, T1/2
row,SMILES,half-life [min]
1,CC(=O)N[C@@H](CCCNC(=N)N)C(=O)N[C@H](C(=O)N[C@H]1CSSC[C@@H](C(=O)N[C@@H](CCCNC(=N)N)C(=O)N[C@@H](CCC(N)=O)C(=O)N[C@H](C(=O)N[C@@H](CC(C)(C)C)C(=O)O)C(C)(C)C)NC(=O)[C@H](C)NC(=O)[C@@H]2CCCN2C(=O)[C@H](CC(N)=O)NC(=O)[C@H](CCCNC(=N)N)NC(=O)[C@H](CC(C)C)NC(=O)[C@H](Cc2c[nH]cn2)NC(=O)[C@H](CC(N)=O)NC1=O)[C@@H](C)O [Arb_cyclic_G15],19.3
2,"CCCC[C@@H]1NC(=O)[C@H](CCCNC(=N)N)NC(=O)[C@H](Cc2c[nH]cn2)NC(=O)[C@H](CC(N)=O)NC(=O)[C@H](C)NC(=O)[C@@H](NC(=O)[C@@H](NC(=O)[C@H](CCCNC(=N)N)NC(C)=O)C(C)C)CSSC[C@@H](C(=O)N[C@@H](CCCNC(=N)N)C(=O)N[C@@H](CCC(N)=O)C(=O)N[C@H](C(=O)N[C@@H](CC(C)(C)C)C(=O)O)C(C)(C)C)NC(=O)[C@H]([C@@H](C)O)NC(=O)[C@H](CC(N)=O)NC1=O [Arb_cyclic_G16, RVCANHR(Nle)NTCRQ(B13)(F02)]",11.2
